The subject of experiment [1] is autoantibodies against oxLDL in serum samples. The experiment is described as follows: Peptide EIA: autoantibodies against peptides and peptide-MDA complexes. To be noted: for reaction of autoantibodies (mean ±SD): plate coated with natp63, MDA and MDAp63; for amount of autoantibodies, mean absorbance after subtracting the blank: Patients (n = 20), six forms of p63 peptide antigen; for Reactivity of autoantibodies, absorbance (PEPTIDE EIA): absorbance at 450 nm, serum 1:20; for MDAp63:natp63 ratio: after subtracting the blank. On the set-up: key to reaction of autoantibodies (mean ±SD): absorbance at 450 nm, blank subtracted. It is filed as binding, human. The procedure: Native and MDA-modified peptides were tested always on the same plate. One half of the plate was coated with the native peptide (20 μg/ml) and the other half was coated with the MDA-modified peptide [(20 μg/ml) 100 μl/well in 100 mmol/l bicarbonate buffer (pH 9.5)]. Coated plates were incubated overnight at room temperature (RT) and then washed with an automatic washer (Wellwash 4 MK II, Labsystems Oy) three times with phosphate buffered saline (PBS) containing 0.05% Tween 20. Plates were blocked with PBS containing 1% human serum albumin (HSA) (150 μl/well) for 1 h at RT and washed as above. Serum samples were diluted 1:20 in PBS containing 0.2% HSA and 0.05% Tween 20 and pipetted 100 μl/well. Plates were incubated for 2 h at RT and washed as above. HRP-conjugated anti-human IgG (diluted 1:20 000 in the sample buffer) was added (100 μl) to each well and incubated for 1 h at RT. After washing, colour was developed by adding the peroxidase substrate (tetramethylbenzidine (TMB) as a chromagen, 100 μl/well) and incubating the plates for 30 min at room temperature in the dark. The reaction was stopped with 0.5 mol/l H2SO4 (100 μl/well) and absorbances were measured at 450 nm (Multiskan microplate reader, Labsystems Oy). The results are shown in Table 2 and are expressed as the absorbance measurement obtained for the native and the modified peptides or as the ratio between antibody binding to the native and the modified peptides after subtracting the blank control.
To find out whether autoantibodies react with the peptide, with MDA or both when peptide-MDA complexes are used as antigen, a microtiter plate was coated with natp63, MDA and MDAp63 antigen and the immunoassays performed. MDA antigen was prepared as MDAp63 antigen but without peptide and MDA was diluted for coating in the same way as MDAp63.

Experiment [2] has as its system antibodies of patient samples binding to coated peptide. Put plainly: Inhibition test: increasing concentrations of peptide added to sample diluent in peptide EIA. On the set-up: species or system human. To be noted: inhibitor 100 μg/ml. The method, then:
The specificity of cyclic (p244cyc) and the corresponding linear peptide (p244) were tested in inhibition tests by adding increasing concentrations of peptides to sample diluent. P244cyc peptide inhibited with the highest inhibitor concentration (100 μg/ml), the average being 61% of the binding of 8 patient samples (FIG. 2A); 3 samples were inhibited by less than 50%. P244 inhibited with the highest inhibitor concentration (100 μg/ml), the average being 70% of the binding of 24 patient samples (FIG. 2B). 3 samples were inhibited less than 50%. P244 seemed to be more specific than p244cyc peptide. Finally, it was confirmed that the epitope of p244 is similar to p63 by coating plate with p244 and inhibiting the binding of patient samples with p63. P63 inhibited with the highest inhibitor concentration (100 μg/ml), the average being 53% of the binding of 22 patient samples (FIG. 3). 9 samples were inhibited less than 50%.

For experiment [3], the system named is antibodies of patient samples against the peptides. The experiment is described as follows: Specificity test: peptide EIA with 0.5 M sodium chloride added to sample diluent. The format is binding, human. To be noted: mean of 20 patient samples. The method, then: The specificity of different antigens was tested by titration of peptides. […] In addition, the specificity of antibodies against cyclic and linear peptides, p244cyc and p244, was tested by adding 0.5 M sodium chloride to sample diluent. The titer of patient samples against p244, p244cyc and p63-MDA was 19%, 38% and 47% lower (mean of 20 patient samples), respectively, when salt was added to sample diluent. It appears that antibodies against p244 have the best specificity.

Experiment [4] deals with autoantibodies against oxLDL in serum samples. Put plainly: OxLDL EIA with copper-oxidized human LDL as antigen. To be noted: for Reactivity of autoantibodies, absorbance (OxLDL EIA): absorbance at 450 nm. The format is binding. The method, then:
Various native and modified peptides, derived from the amino acid sequence of apoB-100 (Chen et al., supra), were tested as antigens suitable for use in EIA. The peptides were modified with MDA to produce similar oxidation specific epitopes as in oxLDL. The results of peptide EIA are compared to the results of oxLDL EIA which was optimized using copper-oxidized LDL as antigen; see Närvänen et al., Free Radical Biology & Medicine, in press.

Where no end group is shown, it is not given here.

Regarding `O=CCC=O` [MDA, Malondialdehyde, reference compound], the “reaction of autoantibodies (mean ±SD)” value worked out at 0.300±0.019 in experiment [1] (control samples, n=23) and 0.338±0.000 in experiment [1] (patient samples, n=16).

As to “LSVKAQYKKNKHRHSITNPL [p63, 2, 20 amino acids, 4 lysines]”, the “average inhibition of the binding of patient samples” value (“average inhibition” below) in experiment [2] (22 patient samples, plate coated with p244, inhibited with p63) is 53%. Further, the “amount of autoantibodies, mean absorbance after subtracting the blank” value (from here on “amount of autoantibodies”) in experiment [1] was 0.389—. In addition, the “reaction of autoantibodies (mean ±SD)” value in experiment [1] (control samples, n=23) is 0.282±0.100; in experiment [1] (patient samples, n=16) it was 0.222±0.041. Besides, the “Reactivity of autoantibodies, absorbance (PEPTIDE EIA)” value is given as 0.216 ± 0.142 in experiment [1] (healthy controls (n = 17)) and 0.159 ± 0.079 in experiment [1] (patients (n = 19)).

Turning to “MDAp63: p63 modified with MDA (LSVKAQYKKNKHRHSITNPL; also: malondialdehyde (MDA) coupled via primary amines of lysines)”, the “amount of autoantibodies” value in experiment [1] is 0.601—. Moreover, the “reaction of autoantibodies (mean ±SD)” value in experiment [1] (control samples, n=23) was 0.533±0.077; in experiment [1] (patient samples, n=16) it was 0.431±0.040. Moreover, the “Reactivity of autoantibodies, absorbance (PEPTIDE EIA)” value in experiment [1] (healthy controls (n = 17)) was determined as 0.497 ± 0.184; in experiment [1] (patients (n = 19)), 0.418 ± 0.141. Also, the “MDAp63:natp63 ratio” value in experiment [1] (healthy controls (n = 17)) is reported as 2.592 ± 0.751; in experiment [1] (patients (n = 19)) it was 2.866 ± 0.924. For the same compound, the “titer of patient samples lower when salt was added to sample diluent” value (“titer of patient samples lower” for short) in experiment [3] came out at 47%.

Regarding “P63-PEA-MDA: p63 modified with MDA and phosphatidylethanolamine (LSVKAQYKKNKHRHSITNPL; also: modified with MDA and phosphatidylethanolamine) [Peptide P63-PEA-MDA]”, the “amount of autoantibodies” value in experiment [1] was 0.406—.

As for “P244cyc-MDA: cyclic p63 modified with MDA (CGLSVKAQYKKNKHRHSITNPLGC; also: cyclic (mode not given here), modified with MDA) [Peptide P244cyc-MDA]”, the “amount of autoantibodies” value in experiment [1] is 0.521—.

As to “natLDL: native human low density lipoprotein, used as antigen”, the “Reactivity of autoantibodies, absorbance (OxLDL EIA)” value (shortened to “Reactivity … (OxLDL EIA)”) is listed as 0.351 ± 0.172 in experiment [4] (healthy controls (n = 17)) and 0.258 ± 0.170 in experiment [4] (patients (n = 19)).

Take “oxLDL: copper-oxidized low density lipoprotein purified from human plasma, used as antigen”: in experiment [4] (healthy controls (n = 17)), the “oxLDL:natLDL ratio” value was determined as 1.886 ± 0.689 and the “Reactivity … (OxLDL EIA)” value stood at 0.591 ± 0.221. Further, in experiment [4] (patients (n = 19)), the “oxLDL:natLDL ratio” value was found to be 2.535 ± 1.430 and the “Reactivity … (OxLDL EIA)” value was determined as 0.600 ± 0.287.

For “p244: a linear form of p63, which contains two extra amino acids (glycine and cysteine) at both ends of the peptide (CGLSVKAQYKKNKHRHSITNPLGC)”, the “average inhibition” value in experiment [2] (24 patient samples, p244) was 70%. Also, the “amount of autoantibodies” value in experiment [1] is on record as 0.995—. In addition, the “titer of patient samples lower” value in experiment [3] was determined as 19%.

As for “p244cyc: cyclic p244 (CGLSVKAQYKKNKHRHSITNPLGC; also: cyclic (way of cyclisation not given here))”, the “average inhibition” value in experiment [2] (8 patient samples, p244cyc) came to 61%. Moreover, the “amount of autoantibodies” value in experiment [1] was 0.734—. Besides, in experiment [3], the “titer of patient samples lower” value is on record as 38%.

These data come from US20080261234A1, “Peptides and their use in assays for cardiovascular disease” (priority 2000, published 2008).
